From US6515106B1, “Lysozyme-analogous polypeptides with an anti-microbial effect, their production and use” (priority 1997, dated 2003) come the findings set out here.

Where two headings read alike, the source gives them in different places.

For assay [1], the system named is Escherichia coli cells. Nature of the assay: Relative survival rates of Escherichia coli cells after 1 hr incubation (bactericidal activity). Type of assay: cell-based. To be noted: for Relative survival rate of Escherichia coli cells: in 0.1 × PBS, 1 hr incubation. The method, then:
The antibiotic effectiveness of the polypeptides of the invention is illustrated by their effect on survival rates of Escherichia coli cells in Table 1.
(§1) The bactericidal effect of the individual fragments is readily determined by incubation (use of 1-10 μg polypeptide for a quantity of 1×10^7 bacteria cells) for one hour with Escherichia coli or other gram-negative (e.g. Erwinia carotovora, Agrobacterium tumefaciens, Pseudomonas fluorescens) or gram-positive type of bacteria (e.g. Micrococcus lysodeikticus, Clavibacter michiganensis), followed by plating out a dilution series of the suspension, and counting the surviving bacteria. The fungicidal effect of the individual fragments is determined by incubation for 20 hours with spores of Phytophthora nicotianae, or other fungus types, followed by plating out to determine the reduced growth length of the fungus hyphae. The activity is determined in relation to purified T4 lysozyme as standard.

Assay [2] concerns Phytophthora nicotianae zoospores. Nature of the assay: Relative length of germ tubes of Phytophthora nicotianae zoospores (fungicidal activity, Table 2). Type of assay: cell-based. The conditions noted are these: 10 μg, in 0.1 xPBS, after 7 hrs, against blank control.
The test system of assay [3] is Phytophthora nicotianae. Nature of the assay: Fungus tests: relative lengths of germ tubes (untitled table, buffers I/II). Type of assay: cell-based. The method, then:
Fungus tests: Relative lengths of germ tubes
as §1

The test system of assay [4] is muramidase. Nature of the assay: Enzyme activity (muramidase) of the polypeptide. Type of assay: biochemical, bacteriophage T4.

As to PNRAKRVIFTFRT [Peptide A4], the “Relative survival rate of Escherichia coli cells” value in assay [1] (1 μg) is 0.74 +/− 0.14; in assay [1] (10 μg), 0.05 +/− 0.09. Also, the “Bactericidal activity compared with T4 lysozyme, in words” value in assay [1] (comment on Table 1) is recorded as “significantly higher bactericidal activity”. The “Relative length of germ tubes” value in assay [2] was found to be 0.48. For the same sequence, the “Relative lengths of germ tubes” value in assay [3] (1 μg, in buffer I (20 μl buffer Al + 1 μl PBS)) came out at 0.59. Moreover, the results for the “Enzyme activity (muramidase), in words” value in assay [4] and in assay [4] (listed as amino acid 143-155) were “no enzymatic muramidase activity” and “none of the native enzymatic activity”, respectively.

Take “WDEAAVNLAKSRWYNQ [Peptide A23, peptide including AA 126-141 of T4 lysozyme]”: the “Relative lengths of germ tubes” value in assay [3] (10 μg, in buffer II (20 μl buffer Al + 1 μl 50% DMSO/50% PBS)) is listed as 0.69.
